Assay results reported in ChEMBL document CHEMBL1141815, “KR025, a new cytotoxic compound from Myxococcus fulvus” (J Nat Prod, 1999).
≈ marks a conversion by molar mass, not a printed value.

Experiments:
Assay type in all cases: functional, cell-based
[1] = test system: A549; assay: Cytotoxicity against human A549 cells after 72 hrs by SRB assay; settings: A549, 72 h
[2] = test system: SK-OV-3; assay: Cytotoxicity against human SKOV3 cells after 72 hrs by SRB assay; settings: SK-OV-3, 72 h
[3] = test system: SK-MEL-2; assay: Cytotoxicity against human SK-MEL-2 cells after 72 hrs by SRB assay; settings: SK-MEL-2, 72 h
[4] = test system: XF498; assay: Cytotoxicity against human XF498 cells after 72 hrs by SRB assay; settings: XF498, 72 h
[5] = test system: HCT-15; assay: Cytotoxicity against human HCT-15 cells after 72 hrs by SRB assay; settings: HCT-15, 72 h

Row | SMILES | IC50 [1] | IC50 [2] | IC50 [3] | IC50 [4] | IC50 [5]
1 | COC(=O)/C=C(/OC)[C@H](C)[C@H](/C=C/c1csc(-c2cnc([C@@H](C)/C=C/C=C/C(C)C)s2)n1)OC | 0.02 ng/mL (≈ 0.0398 nM) | 0.04 ng/mL (≈ 0.0796 nM) | 8.5 ng/mL (≈ 16.9 nM) | 0.03 ng/mL (≈ 0.0597 nM) | 0.06 ng/mL (≈ 0.119 nM)
2 | CCCCCC[C@H]1C(=O)O[C@H](C)[C@H](NC(=O)c2cccc(NC=O)c2O)C(=O)O[C@@H](C)[C@@H]1OC(=O)CC(C)C [ANTIMYCIN A] | 480 ng/mL (≈ 875 nM) | 5500 ng/mL (≈ 10000 nM) | 270 ng/mL (≈ 492 nM) | 390 ng/mL (≈ 711 nM) | 410 ng/mL (≈ 747 nM)
3 | CO/C(=C/C(N)=O)[C@H](C)[C@H](/C=C/c1csc(-c2csc([C@@H](C)/C=C/C=C/C(C)C)n2)n1)OC [MYXOTHIAZOL] | 0.01 ng/mL (≈ 0.0205 nM) | 0.01 ng/mL (≈ 0.0205 nM) | 9.7 ng/mL (≈ 19.9 nM) | 0.03 ng/mL (≈ 0.0615 nM) | 0.03 ng/mL (≈ 0.0615 nM)
